Experiments:
[1] = test system: Mycosis fungoides (cutaneous T Cell lymphoma); settings: methotrexate as a single agent; cited from earlier work
[2] = test system: acute lymphoblastic leukemias; settings: in combination with 60 mg/m^2 of prednisone, given daily; usually within 4 to 6 weeks; cited from earlier work
[3] = test system: MIAPaCa-2 human pancreatic tumor cells; test: Xenogeneic mouse human pancreatic cancer model, tumors harvested at mortality (size, weight, vasculature, palpation); assay type: in vivo, NOD scid gamma (NSG) mice; settings: Example 1, single agents: Group 2 Coenzyme Q10 IV 50 mg/kg/day; Group 3 gemcitabine 150 mg/kg/week; FIG. 2
[4] = test system: MIAPaCa-2 human pancreatic tumor cells; test: Xenogeneic mouse human pancreatic cancer model, survival; assay type: in vivo, NOD scid gamma (NSG) mice; settings: Example 1, Regimen 1, single agent: IV 4% Coenzyme Q10 50 mg/kg/day, or IV gemcitabine 150 mg/kg/week for 3 weeks with one week rest; FIG. 1

CN(Cc1cnc2nc(N)nc(N)c2n1)c1ccc(C(=O)N[C@@H](CCC(=O)O)C(=O)O)cc1 [Methotrexate]
Clinical responses, patients treated [1]: 50% of patients treated. Dosage in early stages is usually 5 to 50 mg once
Remissions, patients treated [2]: prednisone, given daily, produced remissions in 50% of patients treated,

Nc1ccn([C@@H]2O[C@H](CO)[C@@H](O)C2(F)F)c(=O)n1 [gemcitabine, reference compound]
Growth of pancreatic tumors (tumor size at time of death) vs control [3]: inhibited the growth of pancreatic tumors
Survival (prolongation of life) compared to untreated control [4]: prolongation of life as compared to untreated control

Source: patent publication US10933032B2, “Methods for the treatment of cancer using coenzyme Q10 combination therapies” (Berg LLC, priority 2013, dated 2021)
